According to patent EP1832576A1, “4-Biarylyl-1-phenolyzetidin-2-ones” (Microbia Inc., priority 2003, dated 2005):

Test system: cholesterol absorption from the intestine
Assay: In Vivo Assay of Hypolipidemic Agents using the Rat Cholesterol Absorption Model
Design: species or system Female Sprague-Dawley rats
Details: po; for inhibition at 1 mg/kg: 3H levels in serum three hours after 3H-cholesterol, versus vehicle only control; for inhibition at 0.3 mg/kg: Table 2, footnote 6, perorally
Procedure: In Vivo Assay of Hypolipidemic Agents using the Rat Cholesterol Absorption Model. This model is based on models described by Burnett et al (2002), Bioorg. Med. Chem. Lett. 2002 Feb 11;12(3):315-8 and J. Lipid Res. 1999 Oct;40(10):1747-57. Female Sprague-Dawley rats weighing 150-250g are separated into […] and fasted overnight. The animals (4-6/group) are dosed perorally with 300µL test compounds in olive oil or suitable vehicle. Thirty minutes later, 3-5 microCuries ^3H-cholesterol per rat are delivered perorally in 300 µL olive oil. After three hours, 200 µL serum is collected, vortexed with scintillation fluid, and measured for radioactivity in a scintillation counter. Percent inhibition is defined as 100*(1-Ctest/Cctrl), where Ctest and Cctrl refer to ^3H levels in serum for the test compound and for the vehicle only control, respectively. Percent inhibition values are reported for a fixed dose. The ED50 is the dose at which the half-maximal effect on serum ^3H levels is observed for a given test compound.
Representative compounds of the invention were tested in the Rat Cholesterol Absorption model above.

Structure (SMILES) | inhibition at 1 mg/kg (Table 2, perorally) | further results
O=C1[C@H](CC[C@H](O)c2ccc(F)cc2)[C@@H](c2ccc(-c3cccc(O)c3)s2)N1c1ccccc1 [Example 50, (3R,4S)-3-[(3S)-3-(4-Fluorophenyl)-3-hydroxypropyl]-4-[5-(3-hydroxyphenyl)-2-thienyl]-1-phenylazetidin-2-one] | 27% | –
O=C1[C@H](CC[C@H](O)c2ccc(F)cc2)[C@@H](c2ccc(-c3ccc(O)cc3)s2)N1c1ccccc1 [Example 51, (3R,4S)-3-[(3S)-3-(4-Fluorophenyl)-3-hydroxypropyl]-4-[5-(4-hydroxyphenyl)-2-thienyl]-1-phenylazetidin-2-one] | 39% | –
O=C1[C@H](CCC(O)c2ccc(F)cc2)[C@@H](c2ccc(-c3cccc(S(=O)(=O)O)c3)cc2O)N1c1ccccc1 (stereo partly drawn) [Example 53, Sodium 4'-{(2S,3R)-3-[(3S/R)-3-(4-fluorophenyl)-3-hydroxypropyl]-4-oxo-1-phenylazetidin-2-yl}-3'-hydroxybiphenyl-3-sulfonate] | 78% | –
O=C1[C@H](CC[C@H](O)c2ccc(F)cc2)[C@@H](c2ccc(-c3cccc(P(=O)(O)O)c3)cc2)N1c1ccccc1 [Example 56, (4'-{(2S,3R)-3-[(3S)-3-(4-Fluorophenyl)-3-hydroxypropyl]-4-oxo-1-phenylazetidin-2-yl}biphenyl-3-yl)phosphonic acid] | – | inhibition at 1 mg/kg (Table 1, perorally): 59%
O=C1[C@H](CC[C@H](O)c2ccc(F)cc2)[C@@H](c2ccc(-c3cccc(O)c3)cc2)N1c1ccccc1 [Example 57, (3R,4S)-3-[(3S)-3-(4-Fluorophenyl)-3-hydroxypropyl]-4-(3'-hydroxybiphenyl-4-yl)-1-phenylazetidin-2-one] | 73% | –
O=C1[C@H](CC[C@H](O)c2ccc(F)cc2)[C@@H](c2ccc(-c3cccc(B(O)O)c3)cc2)N1c1ccccc1 [Example 59, (4'-{(2S,3R)-3-[(3S)-3-(4-Fluorophenyl)-3-hydroxypropyl]-4-oxo-1-phenylazetidin-2-yl}biphenyl-3-yl)boronic acid] | 70% | –
O=C1[C@H](CC[C@H](O)c2ccc(F)cc2)[C@@H](c2ccc(-c3cccc(P(=O)(O)O)c3)cc2O)N1c1ccccc1 [Example 61, (4'-{(2S,3R)-3-[(3S)-3-(4-Fluorophenyl)-3-hydroxypropyl]-4-oxo-1-phenylazetidin-2-yl}-3'-hydroxybiphenyl-3-yl)phosphonic acid] | – | inhibition at 5 mg/kg (Table 2, footnote mark 3 (defined only under Table 1: 5 mg/kg), perorally): 58%
O=C1[C@H](CC[C@H](O)c2ccc(F)cc2)[C@@H](c2ccc(-c3cccc([C@@H]4O[C@H](CO)[C@@H](O)[C@H](O)[C@H]4O)c3)cc2)N1c1ccccc1 [Example 64, (1S)-1,5-anhydro-1-(4'-{(2S,3R)-3-[(3S)-3-(4-fluorophenyl)-3-hydroxypropyl]-4-oxo-1-phenylazetidin-2-yl}biphenyl-3-yl)-D-glucitol] | 67% | –
O=C1[C@H](CC[C@H](O)c2ccc(F)cc2)[C@@H](c2ccc(-c3cccc([C@@H]4O[C@H](CO)[C@@H](O)[C@H](O)[C@H]4O)c3)cc2O)N1c1ccccc1 [Example 65, (1S)-1,5-anhydro-1-(4'-{(2S,3R)-3-[(3S)-3-(4-fluorophenyl)-3-hydroxypropyl]-4-oxo-1-phenylazetidin-2-yl}-3'-hydroxybiphenyl-3-yl)-D-glucitol] | – | inhibition at 0.1 mg/kg (Table 2, footnote 5, perorally, 0.1 mg/kg): 60%
O=C1[C@H](CC[C@H](O)c2ccc(F)cc2)[C@@H](c2ccc(-c3ccc([C@@H]4O[C@H](CO)[C@@H](O)[C@H](O)[C@H]4O)cc3)cc2O)N1c1ccccc1 [Example 66, (1S)-1,5-Anhydro-1-(4'-{(2S,3R)-3-[(3S)-3-(4-fluorophenyl)-3-hydroxypropyl]-4-oxo-1-phenylazetidin-2-yl}-3'-hydroxybiphenyl-4-yl)-D-glucitol] | – | inhibition at 0.3 mg/kg: 71%
O=C1[C@H](CC[C@H](O)c2ccc(F)cc2)[C@@H](c2ccc(-c3cccc([C@H](O)[C@H]4OC(O)[C@H](O)[C@@H](O)[C@@H]4O)c3)cc2)N1c1ccccc1 (stereo partly drawn) [Example 71, (6S)-6-C-(4'-{(2S,3R)-3-[(3S)-3-(4-Fluorophenyl)-3-hydroxypropyl]-4-oxo-1-phenylazetidin-2-yl}biphenyl-3-yl)-D-glucopyranose] | 65% | –
O=C1[C@H](CC[C@H](O)c2ccc(F)cc2)[C@@H](c2ccc(-c3cccc([C@@H](O)[C@H]4OC(O)[C@H](O)[C@@H](O)[C@@H]4O)c3)cc2)N1c1ccccc1 (stereo partly drawn) [Example 72, (6R)-6-C-(4'-{(2S,3R)-3-[(3S)-3-(4-Fluorophenyl)-3-hydroxypropyl]-4-oxo-1-phenylazetidin-2-yl}biphenyl-3-yl)-D-glucopyranose] | – | inhibition at 0.3 mg/kg: 27%
O=C1[C@H](CC[C@H](O)c2ccc(F)cc2)[C@@H](c2ccc(-c3cccc([C@H](O)[C@H]4OC(O)[C@H](O)[C@@H](O)[C@@H]4O)c3)cc2O)N1c1ccccc1 (stereo partly drawn) [Example 73, (6S)-6-C-(4'-{(2S,3R)-3-[(3S)-3-(4-Fluorophenyl)-3-hydroxypropyl]-4-oxo-1-phenylazetidin-2-yl}-3'-hydroxybiphenyl-3-yl)-D-glucopyranose] | 59% | –
O=C1[C@H](CC[C@H](O)c2ccc(F)cc2)[C@@H](c2ccc(-c3cccc([C@@H](O)[C@H]4OC(O)[C@H](O)[C@@H](O)[C@@H]4O)c3)cc2O)N1c1ccccc1 (stereo partly drawn) [Example 74, (6R)-6-C-(4'-{(2S,3R)-3-[(3S)-3-(4-Fluorophenyl)-3-hydroxypropyl]-4-oxo-1-phenylazetidin-2-yl}-3'-hydroxybiphenyl-3-yl)-D-glucopyranose] | 67% | –
O=C1[C@H](CC[C@H](O)c2ccc(F)cc2)[C@@H](c2ccc(-c3cccc([C@H](O)[C@@H](O)[C@@H](O)[C@H](O)[C@@H](O)CO)c3)cc2O)N1c1ccccc1 [Example 75, (6S)-6-C-(4'-{(2S,3R)-3-[(3S)-3-(4-Fluorophenyl)-3-hydroxypropyl]-4-oxo-1-phenylazetidin-2-yl}-3'-hydroxybiphenyl-3-yl)-D-glucitol] | 68% | –
O=C1[C@H](CC[C@H](O)c2ccc(F)cc2)[C@@H](c2ccc(-c3cccc(OC[C@H]4OC(O)[C@H](O)[C@@H](O)[C@@H]4O)c3)cc2)N1c1ccc(F)cc1 (stereo partly drawn) [Example 76, 6-O-(4'-{(2S,3R)-1-(4-Fluorophenyl)-3-[(3S)-3-(4-fluorophenyl)-3-hydroxypropyl]-4-oxoazetidin-2-yl}biphenyl-3-yl)-D-glucopyranose] | – | inhibition at 1 mg/kg (Table 1, perorally): 56%
CO[C@H]1O[C@H](COc2cccc(-c3ccc([C@@H]4[C@@H](CC[C@H](O)c5ccc(F)cc5)C(=O)N4c4ccc(F)cc4)cc3)c2)[C@@H](O)[C@H](O)[C@H]1O [Example 77, methyl 6-O-(4'-{(2S,3R)-1-(4-fluorophenyl)-3-[(3S)-3-(4-fluorophenyl)-3-hydroxypropyl]-4-oxoazetidin-2-yl}biphenyl-3-yl)-α-D-glucopyranoside] | – | inhibition at 1 mg/kg (Table 1, perorally): 70%
O=C1[C@H](CC[C@H](O)c2ccc(F)cc2)[C@@H](c2ccc(-c3cccc(OC[C@@H](O)[C@@H](O)[C@H](O)[C@@H](O)CO)c3)cc2)N1c1ccc(F)cc1 [Example 78, 6-O-(4'-{(2S,3R)-1-(4-Fluorophenyl)-3-[(3S)-3-(4-fluorophenyl)-3-hydroxypropyl]-4-oxoazetidin-2-yl}biphenyl-3-yl)-D-glucitol] | – | inhibition at 1 mg/kg (Table 1, perorally): 51%
COc1ccc(-c2ccc([C@@H]3[C@@H](CC[C@H](O)c4ccc(F)cc4)C(=O)N3c3ccc(F)cc3)cc2)cc1OC [Example 81, (3R,4S)-4-(3',4'-dimethoxybiphenyl-4-yl)-1-(4-fluorophenyl)-3-[(3 S)-3-(4-fluorophenyl)-3-hydroxypropyl]azetidin-2-one] | – | inhibition at 1 mg/kg (Table 1, perorally): 17%
